In US20180099931A1 (AbbVie S.à.r.l., priority 2016, published 2018):
Where two headings read alike, the source gives them in different places.

Target: T1, F508delCFTR (Homo sapiens, UniProt P13569, DEL508-508)
T1 construct: expressed in transfected cells; host or cells: CFBE41o- human lung-derived epithelial cells (CFBE4lo-F508delCFTR-HRP), doxycycline-inducible
Test: Cell Surface Expression-Horse Radish Peroxidase (CSE-HRP) Assay;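 for Maximum % activity (with co-corrector): co-corrector and positive control are both the same reference corrector at 2 µM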;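 for Maximum % activity (without co-corrector): percent of the 2 µM on-plate positive control corrector response above DMSO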
Type: cell-based
Settings: for Maximum % activity (with co-corrector) / Emax: maximum at any tested concentration, normalized to on-plate positive control; for Emax: read-out: Maximum % activity (without co-corrector)
Description: Cell Surface Expression-Horse Radish Peroxidase (CSE-HRP) Assay;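 for Maximum % activity (with co-corrector): co-corrector and positive control are both the same reference corrector at 2 µM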;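 for Maximum % activity (without co-corrector): percent of the 2 µM on-plate positive control corrector response above DMSO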
The development was achieved by expressing the F508delCFTR mutation along with a horseradish peroxidase (HRP) in the fourth exofacial loop, and then measuring the HRP activity using luminescence readout from these cells, CFBE4lo-F508delCFTR-HRP, that were incubated overnight with the test corrector compounds, either without or with the co-corrector. […] The test compounds were then added either without or with a co-corrector at the required concentrations and further incubated for 18-24 hours at 33° C. The highest concentration tested was 20 μM with an 8-point concentration response curve using a 3-fold dilution in both the test compound without or with the co-corrector. Three replicate plates were run to determine one EC50. All plates contained negative controls (dimethyl sulfoxide, DMSO) and positive control (2 μM of 3-[(2R,4R)-4-({[1-(2,2-difluoro-1,3-benzodioxol-5-yl)cyclopropyl]carbonyl}amino)-7-methoxy-3,4-dihydro-2H-chromen-2-yl]benzoic acid) as well as on-plate concentration response of the positive control. […] The raw counts from the experiment were analyzed using Accelrys® Assay Explorer v3.3.
1−[3*SDPositive Control+3*SDNegative Control/Absolute(MeanPositive Control−MeanNegative Control)]
wherein “SD” is standard deviation.
The % activity measured at each of the 8 test concentrations of the test compound added either without or with a co-corrector (2 μM of 3-[(2R,4R)-4-({[1-(2,2-difluoro-1,3-benzodioxol-5-yl)cyclopropyl]carbonyl}amino)-7-methoxy-3,4-dihydro-2H-chromen-2-yl]benzoic acid) was normalized to the on-plate positive control using the following formulae:
% activity(Test compound without co-corrector)=[(test compound without co-corrector response−DMSO response)/(positive control response−DMSO response)]*100
% activity(Test compound with co-corrector)=[(test compound with co-corrector response−DMSO response)/(positive control response−DMSO response)]*100
The maximum % activity achieved for the test compound either without or with a co-corrector at any tested concentration is presented in Table 4 along with the respective EC50's calculated using the following general sigmoidal curve with variable Hill slope equation (described as Model 42 in the Accelrys® Assay Explorer v3.3 software):
General sigmoidal curve with concentration, response, top, bottom, EC50 and Hill slope. This model describes a sigmoidal curve with an adjustable baseline, a. The equation can be used to fit curves where response is either increasing or decreasing with respect to the independent variable, “x”.
“x” is a concentration of drug under test. “y” is the response. “a” is the maximum response, and “d” is the minimum response “c” is the inflection point (EC50) for the curve. That is, “y” is halfway between the lower and upper asymptotes when x=c. “b” is the slope-factor or Hill coefficient. The sign of b is positive when the response increases with increasing dose and is negative when the response decreases with increasing dose (inhibition).

[1] = CSE-HRP, test compound without co-corrector, read-out: EC50 (without co-corrector)
[2] = CSE-HRP, with co-corrector (2 μM of 3-[(2R,4R)-4-({[1-(2,2-difluoro-1,3-benzodioxol-5-yl)cyclopropyl]carbonyl}amino)-7-methoxy-3,4-dihydro-2H-chromen-2-yl]benzoic acid), read-out: EC50 (with co-corrector)
[3] = CSE-HRP, with co-corrector (2 μM)
[4] = test compound without co-corrector
[5] = test compound without co-corrector, read-out: EC50 (without co-corrector)
[6] = with co-corrector (2 μM of 3-[(2R,4R)-4-({[1-(2,2-difluoro-1,3-benzodioxol-5-yl)cyclopropyl]carbonyl}amino)-7-methoxy-3,4-dihydro-2H-chromen-2-yl]benzoic acid)
[7] = with co-corrector (2 μM of 3-[(2R,4R)-4-({[1-(2,2-difluoro-1,3-benzodioxol-5-yl)cyclopropyl]carbonyl}amino)-7-methoxy-3,4-dihydro-2H-chromen-2-yl]benzoic acid), read-out: EC50 (with co-corrector)

T1 sequence (P13569 with tags, fused parts or gaps DEL508-508): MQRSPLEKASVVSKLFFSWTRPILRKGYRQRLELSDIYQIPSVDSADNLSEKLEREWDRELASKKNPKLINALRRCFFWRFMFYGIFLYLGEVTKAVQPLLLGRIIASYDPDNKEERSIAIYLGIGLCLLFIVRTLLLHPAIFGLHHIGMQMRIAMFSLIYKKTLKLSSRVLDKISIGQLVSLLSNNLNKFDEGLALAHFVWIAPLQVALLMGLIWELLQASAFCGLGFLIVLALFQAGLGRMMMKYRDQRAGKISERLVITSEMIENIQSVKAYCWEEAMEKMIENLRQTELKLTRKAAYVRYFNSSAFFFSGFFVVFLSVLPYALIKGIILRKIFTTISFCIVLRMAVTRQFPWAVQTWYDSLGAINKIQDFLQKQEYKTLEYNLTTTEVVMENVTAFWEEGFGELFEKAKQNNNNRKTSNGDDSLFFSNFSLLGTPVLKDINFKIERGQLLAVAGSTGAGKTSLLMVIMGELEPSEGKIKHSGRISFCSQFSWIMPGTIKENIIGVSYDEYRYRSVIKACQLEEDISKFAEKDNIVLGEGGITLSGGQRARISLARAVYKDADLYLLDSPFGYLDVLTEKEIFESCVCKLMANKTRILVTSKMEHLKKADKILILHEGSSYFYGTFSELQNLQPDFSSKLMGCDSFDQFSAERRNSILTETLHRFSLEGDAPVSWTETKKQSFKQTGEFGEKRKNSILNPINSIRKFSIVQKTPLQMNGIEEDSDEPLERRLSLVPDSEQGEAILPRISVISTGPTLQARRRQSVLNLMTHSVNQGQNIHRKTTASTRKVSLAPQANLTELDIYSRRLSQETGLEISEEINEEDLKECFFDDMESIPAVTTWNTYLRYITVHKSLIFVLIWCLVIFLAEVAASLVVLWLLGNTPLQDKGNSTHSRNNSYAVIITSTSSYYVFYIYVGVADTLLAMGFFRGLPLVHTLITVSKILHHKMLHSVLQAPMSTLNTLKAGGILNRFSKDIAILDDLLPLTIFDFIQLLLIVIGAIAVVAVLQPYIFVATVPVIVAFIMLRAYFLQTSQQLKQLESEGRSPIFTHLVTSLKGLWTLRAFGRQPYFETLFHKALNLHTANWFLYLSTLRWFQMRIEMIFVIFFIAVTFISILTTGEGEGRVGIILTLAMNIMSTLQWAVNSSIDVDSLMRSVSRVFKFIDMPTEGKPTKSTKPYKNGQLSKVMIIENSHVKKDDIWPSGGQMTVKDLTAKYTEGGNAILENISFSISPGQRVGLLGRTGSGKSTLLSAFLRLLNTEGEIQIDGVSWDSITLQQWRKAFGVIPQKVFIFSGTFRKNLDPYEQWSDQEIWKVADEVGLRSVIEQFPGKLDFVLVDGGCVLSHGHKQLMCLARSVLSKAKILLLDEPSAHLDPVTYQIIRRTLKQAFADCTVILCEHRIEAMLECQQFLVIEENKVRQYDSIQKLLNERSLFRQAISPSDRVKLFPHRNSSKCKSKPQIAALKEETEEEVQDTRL

Row | EC50 [1] | EC50 [2] | Maximum % activity (with co-corrector) [3] | Emax (CSE-HRP, without co-corrector) | Emax [4] | EC50 [5] | Maximum % activity (with co-corrector) [6] | EC50 [7] | Maximum % activity (with co-corrector) (with co-corrector (2 μM)) | Emax (without co-corrector) | SMILES
1 | 1 to 10 µM | < 1 µM | +++ (≥350) | > 200% | – | – | – | – | – | – | COc1ccc(C(C)(C)C)cc1CN[C@H]1[C@H](C(C)(C)C)[C@@H](C(=O)O)N(C(=O)C(C)c2ccccc2)[C@H]1c1ccccc1 (stereo partly shown) [II-215]
2 | – | – | – | – | > 200% | 1 to 10 µM | +++ (≥350) | 1 to 10 µM | – | – | COc1ncc(C(F)(F)F)cc1CN[C@H]1[C@H](C(C)(C)C)[C@@H](C(=O)O)N(C(=O)OC(C)C)[C@H]1c1cccnc1N(C)C [II-510]
3 | 1 to 10 µM | < 1 µM | +++ (≥350) | > 200% | – | – | – | – | – | – | COc1ccc(C(C)(C)C)cc1CN[C@H]1[C@H](C(C)(C)C)[C@@H](C(=O)O)N(C(=O)CC2CCCC2(F)F)[C@H]1c1ccccc1 (stereo partly shown) [II-219]
4 | – | – | – | – | 100 to 200% | < 1 µM | +++ (≥350) | 1 to 10 µM | – | – | COc1nc(C(C)(C)C)ncc1CN[C@H]1[C@H](C(C)(C)C)[C@@H](C(=O)O)N(C(=O)C2CCCC(F)(F)C2)[C@H]1c1ccccc1 (relative stereo) [II-477]
5 | – | – | – | – | – | 1 to 10 µM | – | < 1 µM | +++ (≥350) | > 200% | COc1nc2ccccc2cc1CN[C@H]1[C@H](C(C)(C)C)[C@@H](C(=O)O)N(C(=O)[C@@H]2CCCO2)[C@H]1c1ccccc1C(C)C [Example 100, (2S,3S,4S,5S)-3-tert-butyl-4-{[(2-methoxyquinolin-3-yl)methyl]amino}-1-[(2S)-oxolane-2-carbonyl]-5-[2-(propan-2-yl)phenyl]pyrrolidine-2-carboxylic acid]
6 | – | – | – | – | – | < 1 µM | – | < 1 µM | +++ (≥350) | > 200% | COc1ccc(C(C)(C)C)cc1CN[C@H]1[C@H](C(C)(C)C)[C@@H](C(=O)O)N(C(=O)C2Cc3ccccc3O2)[C@H]1c1ccccc1 (single isomer, unassigned) [Example 28, (2S,3S,4S,5S)-3-tert-butyl-4-{[(5-tert-butyl-2-methoxyphenyl)methyl]amino}-1-[(2S*)-2,3-dihydro-1-benzofuran-2-carbonyl]-5-phenylpyrrolidine-2-carboxylic acid]
7 | 1 to 10 µM | 1 to 10 µM | +++ (≥350) | 100 to 200% | – | – | – | – | – | – | COc1ccc(-c2ccc(C)nc2)cc1CN[C@H]1[C@H](C(C)(C)C)[C@@H](C(=O)O)N(C(=O)C2CCCCC2)[C@H]1c1ccccc1 [II-278]
8 | – | – | – | – | > 200% | 1 to 10 µM | +++ (≥350) | 1 to 10 µM | – | – | COc1ccc(C(C)(C)C)cc1CN[C@H]1[C@H](C(C)(C)C)[C@@H](C(=O)O)N(C(=O)C2CCC(F)(F)C2)[C@H]1c1ccccc1 (stereo partly shown) [II-334]
9 | – | – | – | – | 100 to 200% | 1 to 10 µM | +++ (≥350) | 1 to 10 µM | – | – | COCC1(c2ccc(OC)c(CN[C@H]3[C@H](C(C)(C)C)[C@@H](C(=O)O)N(C(=O)C4CCCCC4)[C@H]3c3ccccc3)c2)CC1 [II-420]
10 | – | – | – | – | – | 1 to 10 µM | – | < 1 µM | +++ (≥350) | 100 to 200% | COc1ccc(C(C)(C)C)cc1CN[C@H]1[C@H](C(C)(C)C)[C@@H](C(=O)O)N(C(=O)C2CCCCC2)[C@H]1c1ccccc1OC(F)F [Example I-229]
11 | – | – | – | – | > 200% | 1 to 10 µM | +++ (≥350) | 1 to 10 µM | – | – | COc1ccc(C2(C)CCC2)cc1CN[C@H]1[C@H](C(C)(C)C)[C@@H](C(=O)O)N(C(=O)OC(C)C)[C@H]1c1ccccc1 [II-537]
12 | – | – | – | – | < 100% | 1 to 10 µM | ++ (≥150 and <350) | 1 to 10 µM | – | – | COc1ccc(C(C)(C)C)cc1CN[C@H]1[C@H](C(C)(C)C)[C@@H](C(=O)O)N(C(=O)C2(c3cccc(Cl)c3)COC2)[C@H]1c1ccccc1 [II-497]
13 | – | – | – | – | < 100% | > 10 µM | – | 1 to 10 µM | ++ (≥150 and <350) | – | CC(C)(C)[C@H]1[C@H](NCc2ccc3c(c2)CCCO3)[C@H](c2ccccc2)N(C(=O)C2CCCCC2)[C@@H]1C(=O)O [III-120]
14 | – | – | – | – | < 100% | 1 to 10 µM | ++ (≥150 and <350) | – | – | – | COc1ccc(C(C)(C)C)cc1CN[C@H]1[C@H](C(C)(C)C)[C@@H](C(=O)O)N(C(=O)C2CCc3ccccc3O2)[C@H]1c1cccnc1N(C)C (single isomer, unassigned) [II-438]
15 | – | – | – | – | – | 1 to 10 µM | – | < 1 µM | +++ (≥350) | > 200% | COc1ncc(C2CCC2)cc1CN[C@H]1[C@H](C(C)(C)C)[C@@H](C(=O)O)N(C(=O)[C@@H]2CCCO2)[C@H]1c1ccccc1C(C)C [Example 89, (2S,3S,4S,5S)-3-tert-butyl-4-{[(5-cyclobutyl-2-methoxypyridin-3-yl)methyl]amino}-1-[(2S)-oxolane-2-carbonyl]-5-[2-(propan-2-yl)phenyl]pyrrolidine-2-carboxylic acid]
16 | – | – | – | – | < 100% | > 10 µM | – | 1 to 10 µM | ++ (≥150 and <350) | – | CC(C)(C)[C@H]1[C@H](NCc2ccc3c(c2)OC(F)(F)O3)[C@H](c2ccccc2)N(C(=O)C2CCCCC2)[C@@H]1C(=O)O [III-132]
17 | 1 to 10 µM | 1 to 10 µM | ++ (≥150 and <350) | 100 to 200% | – | – | – | – | – | – | Cc1ccc(CN[C@H]2[C@H](C(C)(C)C)[C@@H](C(=O)O)N(C(=O)C3CCCCC3)[C@H]2c2ccccc2)c(C)c1 [II-131]
18 | 1 to 10 µM | 1 to 10 µM | +++ (≥350) | > 200% | – | – | – | – | – | – | COc1ncc(C2CCC2)cc1CN[C@H]1[C@H](C(C)(C)C)[C@@H](C(=O)O)N(C(=O)[C@@H]2CCCCO2)[C@H]1c1cccc2c1OCC2 [Example I-301]
19 | – | – | – | – | – | 1 to 10 µM | – | 1 to 10 µM | ++ (≥150 and <350) | < 100% | CC(C)(C)[C@H]1[C@H](NCc2cc3ccccc3o2)[C@H](c2ccccc2)N(C(=O)C2CCCCC2)[C@@H]1C(=O)O [Example I-46]
20 | 1 to 10 µM | 1 to 10 µM | +++ (≥350) | > 200% | – | – | – | – | – | – | COc1ccc(C(C)C)cc1CN[C@H]1[C@H](C(C)(C)C)[C@@H](C(=O)O)N(C(=O)OC(C)C)[C@H]1c1ccccc1 [II-169]
21 | – | – | – | – | – | 1 to 10 µM | – | 1 to 10 µM | +++ (≥350) | > 200% | COc1ncc(C(C)(C)C)cc1CN[C@H]1[C@H](C(C)(C)C)[C@@H](C(=O)O)N(C(=O)[C@@H]2CCCCO2)[C@H]1c1cccnc1N(C)C [Example I-142]
22 | – | – | – | – | 100 to 200% | 1 to 10 µM | – | < 1 µM | +++ (≥350) | – | COc1ncc(C2CCC2)cc1CN[C@H]1[C@H](C(C)(C)C)[C@@H](C(=O)O)N(C(=O)C2CCCCC2C)[C@H]1c1ccccc1 (stereo partly shown) [III-208]
23 | – | – | – | – | 100 to 200% | < 1 µM | +++ (≥350) | < 1 µM | – | – | COc1ncc(C(C)(C)C)cc1CN[C@H]1[C@H](C(C)(C)C)[C@@H](C(=O)O)N(C(=O)C2CCCCC2)[C@H]1c1ccccc1F [II-351]
